Source: patent US20040044028A1, “Combinations of omega-3 fatty acids and cyclooxygenase-2 inhibitors for treatment or prevention of cardiovascular disease and treatment or prevention of cancer” (priority 2001, published 2004)
Marks after values point to notes of the source that are not given here.

Tests used:
mouse liver [1] = tested on: mouse liver; design: species or system mice; details: in vivo
From the text: The metabolism of stearidonic acid to long chain n-3 polyunsaturated fatty acids (i.e., eicosapentaenoic acid (EPA), docosapentaenoic acid (DPA n-3) and docosahexaenoic acid (DHA)) in mouse liver is compared to that of α-linolenic acid, eicosapentaenoic acid and docosahexaenoic acid. The method used is a non-radioactive, dose response, metabolic end-point study.
Mice are fed a US 17 diet containing α-linolenic acid ethyl ester (ALA-EE), stearidonic acid ethyl ester (SDA-EE), eicosapentaenoic acid ethyl ester (EPA-EE), or docosahexaenoic acid ethyl ester (DHA-EE) in an amount equivalent to a human western diet containing 1, 3 or 10 g/day of the fatty acid (g/day human equivalent dose). In order to maintain a 17% fat (37% energy) content in the US17 diet, oleic acid (18:1 n-9), as an oleic acid cassette, is removed from the US17 diet in an amount equal to the amount of fatty acid ester that is added. Oleic acid is selected as the replacement fatty acid because literature reports indicate that oleic acid is neutral with respect to inflammation and cancer.
After one month on the respective US17-based diets, the mice are sacrificed and the fatty acid composition of each of their livers is analyzed by gas chromatography. The sum of the long chain n-3 PUFAs (i.e., EPA+DPA n-3+DHA) increases dose dependently in liver tissue in the following rank order: DHA-EE>EPA-EE>SDA-EE>ALA-EE. […] Each of the dietary n-3 PUFAs decreases the level of arachidonic acid in liver tissue dose dependently. This is significant because arachidonic acid metabolites (e.g., prostaglandins, leukotrienes, and HETEs (hydroxyeicosatetraenoic acid)) are correlated with cardiovascular disease, inflammation, and tumorigenesis. The group “basal” refers to mice that are fed the standard rodent chow diet just prior to switching to diets that are US17 based.

HepG2 cells = test: Metabolism of 14C fatty acids to long chain n-3 PUFAs, EPA and DHA in HepG2 cells; format: in vitro ADME; details: for metabolized to DHA / metabolized to EPA: 20 μM 14C fatty acid
Procedure: To a culture medium containing HepG2 cells is added 20 μM ^14C-ALA, ^14C-SDA or ^14C-EPA complexed to fatty acid free BSA. The amount of ^14C-ALA, ^14C-SDA or ^14C-EPA taken up by the HepG2 cells is measured at 6 hours, 24 hours and 48 hours after addition of the fatty acid. A scintillation counter is used to measure the total amount of radioactivity in the HepG2 cells and the amount remaining in the medium.
The metabolism of stearidonic acid to long chain n-3 PUFAs (eicosatetraenoic acid (20:4n-3), eicosapentaenoic acid (20:5n-3), docosapentaenoic acid (22:5n-3), and docosahexaenoic acid (22:6n-3)) in HepG2 cells is compared to that of α-linolenic acid. HepG2 cells are allowed to take up ^14C-ALA or ^14C-SDA as described in Example 2. The total amount of ^14C-EPA, ^14C-DPA and ^14C-DHA present in the HepG2 cells is measured at 6 hours, 24 hours and 48 hours after addition of the fatty acid by argentation thin layer chromatography (TLC). The amount of each fatty acid present as a band on the TLC plate is quantified by electronic autoradiography using an Instant Imager available from Packard (Meriden, Conn.).
HepG2 cells are allowed to take up ^14C-ALA, ^14C-SDA or ^14C-EPA as described in Example 2. The amount of ^14C-EPA and ^14C-DHA present in the HepG2 cells is measured at 6 hours, 24 hours and 48 hours after addition of the fatty acids by argentation thin layer chromatography (TLC) as described in Example 3. The amount of ^14C-EPA and ^14C-DHA present as bands on the TLC plate are quantified by electronic autoradiography using an Instant Imager as described in Example 3.

[2] = tested on: Min/+ mouse model of intestinal cancer; test: Min/+ mouse model of intestinal cancer, intestinal polyp formation; format: in vivo; details: for mice with large intestine tumors / mice in group (in parentheses): seven weeks on US17 diet with fatty acid ethyl ester 3% wt. or sulindac 320 ppm; for effect on polyp number: differences not significant relative to the US17 control
Procedure: The efficacy of select n-3 and n-6 polyunsaturated fatty acids is evaluated in the Min/+ mouse model of intestinal cancer. The following fatty acid ethyl esters are tested for their effect on intestinal polyp formation: 1) ALA-EE; 2) SDA-EE; 3) EPA-EE; 4) DHA-EE; 5) GLA-EE ([…] adid, 18:3 n-6); and 6) CLA-EE (conjugated linoleic acid; c9t11-18:2 (77%)+c9c11-18:2 (18%)+other isomers (5%)).
These fatty acid ethyl esters are added to the US17 diet to provide 10 g/day human equivalent dose (3% wt.). The NSAID, sulindac (320 ppm), serves as the positive control. In order to maintain a 17% fat (37 en %) content in the US17 diet, oleic acid (18:1 n-9) is removed from the US17 diet in an amount equal to the amount of the fatty acid ethyl ester that is added. Mice are received at approximately five weeks of age and are fed the test diets upon receipt. After seven weeks on the respective test diet, the mice are sacrificed and the intestinal polyps are counted and measured.

mouse liver [3] = test: Metabolism in mice, time course analysis using radiolabeled fatty acids; format: in vivo; details: 10 μCi intraperitoneal, at 24 hours
From the text: The metabolism of stearidonic acid to long chain n-3 polyunsaturated fatty acids (i.e., eicosapentaenoic acid (EPA), docosapentaenoic acid (DPA n-3), and docosahexaenoic acid (DHA)) in mouse liver is compared to that of α-linolenic acid, eicosapentaenoic acid and docosahexaenoic acid. The method used is a time course study using ^14C-labeled fatty acids.
Mice are fed the US 17 diet for a period of one month in order to achieve steady-state fatty acid metabolism. After achieving steady-state fatty acid metabolism, the mice are administered an intraperitoneal injection containing 10 μCi of ^14C-ALA, ^14C-SDA, ^14C-EPA or ^14C-DHA. Mice are sacrificed 3 hours, 8 hours or 24 hours post-injection, and the total amount of ^14C-EPA, ^14C-DPA n-3 and ^14C-DHA is measured by argentation thin layer chromatography followed by direct electronic autoradiography, as described in Example 3. The order of metabolism of the PUFAs is DHA=EPA>SDA>ALA at 24 hours. SDA is metabolized to long chain n-3 PUFAs more efficiently than ALA in vivo.

rat liver = test: Metabolism in rats, end point analysis using cold fatty acid ethyl esters; format: in vivo; details: dietary ethyl esters
Procedure: Oleic acid is selected as the replacement fatty acid because literature reports indicate that oleic acid is neutral with respect to inflammation and cancer. After one month on the respective US17-based diets, the mice are sacrificed and the fatty acid composition of each of their livers is analyzed by gas chromatography. […] DHA-EE>EPA-EE>SDA-EE>ALA-EE. […] This is significant because arachidonic acid metabolites (e.g., prostaglandins, leukotrienes, and HETEs (hydroxyeicosatetraenoic acid)) are correlated with cardiovascular disease, inflammation, and tumorigenesis. The group “basal” refers to mice that are fed the standard rodent chow diet just prior to switching to diets that are US17 based. […] The method used is as described in Example 6 except that rats are used in place of mice.

[4] = tested on: small intestine tissue of Min/+ mouse; test: Arachidonic acid level in small intestine tissue of Min/+ mice; format: in vivo; details: phospholipid fraction, ethyl ester 3% wt. in US17 diet
Procedure: The efficacy of select n-3 and n-6 polyunsaturated fatty acids in reducing the level of arachidonic acid in small intestine tissue is evaluated using the Min/+ mouse model.
The following fatty acid ethyl esters are tested for their effect on intestinal fatty acid composition: 1) ALA-EE; 2) SDA-EE; 3) EPA-EE; 4) DHA-EE; 5) GLA-EE; and 6) CLA-EE. Fatty acid composition is determined in the small intestine because that is where the vast majority of polyps form.
These fatty acid esters are added to the US17 diet as discussed in Example 8. The arachidonic acid level in the phospholipid fraction of the small intestines of the mice is determined by gas chromatography.

[5] = Min/+ mice, seven weeks, ethyl ester 3% wt. or sulindac 320 ppm
[6] = Min/+ mice, seven weeks, ethyl ester 3% wt. or sulindac 320 ppm, mean ± SEM
[7] = large and small intestine, Min/+ mice, seven weeks, ethyl ester 3% wt. or sulindac 320 ppm, mean ± SEM
[8] = tumor number × tumor size, Min/+ mice, seven weeks, ethyl ester 3% wt. or sulindac 320 ppm, mean ± SEM

CC/C=C\C/C=C\C/C=C\CCCCCCCC(=O)OCC [ALA-EE, α-linolenic acid ethyl ester]
sum of the long chain n-3 PUFAs (EPA+DPA n-3+DHA) in liver tissue, rank order of dose dependent increase (mouse liver [1]): DHA-EE>EPA-EE>SDA-EE>ALA-EE

CC/C=C\C/C=C\C/C=C\CCCCCCCC(=O)O [Compound A-1, all cis 9,12,15-octadecatrienoic acid]
metabolized to DHA (HepG2 cells): 3%
metabolized to EPA (HepG2 cells): 24%
effectiveness in inhibiting polyp formation and development in the large intestine ([2]; Min/+ mice): marginally efficacious
Total large intestine tumors/group ([2]; Min/+ mice, seven weeks on US17 diet with fatty acid ethyl ester 3% wt. (10 g/day human equivalent dose) or sulindac 320 ppm): 8
Total small intestine tumors/group [2, 5]: 364
Avg. large intestine tumors/mouse [2, 6]: 0.8 ± 0.3^bcd
Avg. small intestine tumor size [2, 6]: 1.23 ± 0.04^ab mm
Avg. small intestine tumors/mouse [2, 6]: 36.4 ± 6.3^ab
Avg. large intestine tumor size ([2]; Min/+ mice, seven weeks, ethyl ester 3% wt. or sulindac 320 ppm, mean ± SEM, only animals bearing colonic tumors): 2.75 ± 0.46^ab
Total Avg. overall tumor size [2, 7]: 1.21 ± 0.03^bc mm
Total Avg. tumors/mouse [2, 7]: 37.2 ± 6.6^ab
mice with large intestine tumors / mice in group (in parentheses) [2]: 5/10
Total Avg. overall tumor load ([2]; tumor number × tumor size, large and small intestine, Min/+ mice, seven weeks, ethyl ester 3% wt. or sulindac 320 ppm, mean ± SEM): 45.97 ± 8.88^ab mm
Avg. large intestine tumor load [2, 8]: 2.15 ± 0.82^bcd mm
Avg. small intestine tumor load [2, 8]: 45.67 ± 8.66^ab mm

CC/C=C\C/C=C\C/C=C\C/C=C\CCCCC(=O)O [Compound A-2, all cis 6,9,12,15-octadecatetraenoic acid]
order of metabolism of the PUFAs to long chain n-3 PUFAs (14C-EPA, 14C-DPA n-3, 14C-DHA) (mouse liver [3]): DHA=EPA>SDA>ALA
decrease in the level of arachidonic acid, comparison (rat liver): greater decrease in the level of arachidonic acid than does either ALA or EPA
metabolism to long chain n-3 polyunsaturated fatty acids, comparison (rat liver): better than ALA
metabolism to long chain n-3 PUFAs, comparison (HepG2 cells): faster than that of ALA
metabolized to DHA (HepG2 cells): 6%
metabolized to EPA (HepG2 cells): 55%
decreasing the level of arachidonic acid in the small intestine, comparison [4]: more effective than ALA, EPA and DHA
Total small intestine tumors/group [2, 5]: 18
Total Avg. tumors/mouse [2, 7]: 18.7 ± 1.9^c
mice with large intestine tumors / mice in group (in parentheses) [2]: 2/10

CC/C=C\C/C=C\C/C=C\C/C=C\C/C=C\CCCC(=O)O [Compound A-4, all cis (5,8,11,14,17-eicosapentaenoic acid]
effectiveness in inhibiting polyp formation and development in the large intestine ([2]; Min/+ mice): marginally efficacious
Total small intestine tumors/group [2, 5]: 17
Total Avg. tumors/mouse [2, 7]: 18.5 ± 2.2^c
mice with large intestine tumors / mice in group (in parentheses) [2]: 6/10
Avg. small intestine tumor load [2, 8]: 18.34 ± 2.04^cd mm

CC/C=C\C/C=C\C/C=C\C/C=C\C/C=C\C/C=C\CCC(=O)O [Compound A-6, all cis 4,7,10,13,16,19-docosahexanoic acid]
order of metabolism of the PUFAs to long chain n-3 PUFAs (14C-EPA, 14C-DPA n-3, 14C-DHA) (mouse liver [3]): DHA=EPA>SDA>ALA
mice with large intestine tumors / mice in group (in parentheses) [2]: 9/10

CC/C=C\C/C=C\C/C=C\C/C=C\C/C=C\C/C=C\CCC(=O)OCC [DHA-EE, docosahexaenoic acid ethyl ester]
sum of the long chain n-3 PUFAs (EPA+DPA n-3+DHA) in liver tissue, rank order of dose dependent increase (mouse liver [1]): DHA-EE>EPA-EE>SDA-EE>ALA-EE

CC/C=C\C/C=C\C/C=C\C/C=C\C/C=C\CCCC(=O)OCC [EPA-EE, eicosapentaenoic acid ethyl ester]
sum of the long chain n-3 PUFAs (EPA+DPA n-3+DHA) in liver tissue, rank order of dose dependent increase (mouse liver [1]): DHA-EE>EPA-EE>SDA-EE>ALA-EE

CCCCC/C=C\C/C=C\C/C=C\CCCCC(=O)O [GLA, γ-linolenic acid, reference compound]
Total small intestine tumors/group [2, 5]: 42
effect on polyp number ([2]; Min/+ mice): appears to increase polyp number
mice with large intestine tumors / mice in group (in parentheses) [2]: 6/9

CC/C=C\C/C=C\C/C=C\C/C=C\CCCCC(=O)OCC [SDA-EE, stearidonic acid ethyl ester]
sum of the long chain n-3 PUFAs (EPA+DPA n-3+DHA) in liver tissue, rank order of dose dependent increase (mouse liver [1]): DHA-EE>EPA-EE>SDA-EE>ALA-EE

CC1=C(CC(=O)O)c2cc(F)ccc2/C1=C\c1ccc([S+](C)[O-])cc1 (centres unmarked) [Sulindac, sulindac, reference compound]
Avg. large intestine tumors/mouse [2, 6]: 0.2 ± 0.2^ad
mice with large intestine tumors / mice in group (in parentheses) [2]: 2/9

conjugated linoleic acid [CLA, reference compound]
Total small intestine tumors/group [2, 5]: 40
effect on polyp number ([2]; Min/+ mice): appears to increase polyp number
mice with large intestine tumors / mice in group (in parentheses) [2]: 5/9
